Results on eight molecules are retold here after patent US6004966A, “Use of xanthine oxidase inhibitors as anti-ischaemic agents” (BTG International Limited, priority 1994, dated 1999).

SMILES strings stand for the structures. Read-outs that look alike come from different tables or passages of the source.

In assay [1] the target is xanthine oxidase (Bos taurus, UniProt P80457). As to the kind of experiment: Xanthine oxidase inhibition assay (superoxide-dependent cytochrome c reduction). It is filed as biochemical. The conditions noted are these: for % Inhibition (of initial rate of reaction) / inhibition at 1 µM / inhibition at 5 µM / inhibition at 10 µM / inhibition at 50 µM: n=3; for inhibition at 1 µM / inhibition at 5 µM / inhibition at 10 µM / inhibition at 50 µM: read-out: % Inhibition (of initial rate of reaction); for xanthine oxidase inhibition, result in words: statement under Table 4. The protocol: Superoxide produced from the oxidation of varying concentrations of xanthine to uric acid in the presence of xanthine oxidase (5×10^-3 U/ml) was quantified by the superoxide dismutase inhibitable reduction of […] (10 μM) at 550 nm with respect to time. Enzyme inhibition was determined at varying concentrations of the inhibitors.
xanthine oxidase, sequence (P80457 whole entry): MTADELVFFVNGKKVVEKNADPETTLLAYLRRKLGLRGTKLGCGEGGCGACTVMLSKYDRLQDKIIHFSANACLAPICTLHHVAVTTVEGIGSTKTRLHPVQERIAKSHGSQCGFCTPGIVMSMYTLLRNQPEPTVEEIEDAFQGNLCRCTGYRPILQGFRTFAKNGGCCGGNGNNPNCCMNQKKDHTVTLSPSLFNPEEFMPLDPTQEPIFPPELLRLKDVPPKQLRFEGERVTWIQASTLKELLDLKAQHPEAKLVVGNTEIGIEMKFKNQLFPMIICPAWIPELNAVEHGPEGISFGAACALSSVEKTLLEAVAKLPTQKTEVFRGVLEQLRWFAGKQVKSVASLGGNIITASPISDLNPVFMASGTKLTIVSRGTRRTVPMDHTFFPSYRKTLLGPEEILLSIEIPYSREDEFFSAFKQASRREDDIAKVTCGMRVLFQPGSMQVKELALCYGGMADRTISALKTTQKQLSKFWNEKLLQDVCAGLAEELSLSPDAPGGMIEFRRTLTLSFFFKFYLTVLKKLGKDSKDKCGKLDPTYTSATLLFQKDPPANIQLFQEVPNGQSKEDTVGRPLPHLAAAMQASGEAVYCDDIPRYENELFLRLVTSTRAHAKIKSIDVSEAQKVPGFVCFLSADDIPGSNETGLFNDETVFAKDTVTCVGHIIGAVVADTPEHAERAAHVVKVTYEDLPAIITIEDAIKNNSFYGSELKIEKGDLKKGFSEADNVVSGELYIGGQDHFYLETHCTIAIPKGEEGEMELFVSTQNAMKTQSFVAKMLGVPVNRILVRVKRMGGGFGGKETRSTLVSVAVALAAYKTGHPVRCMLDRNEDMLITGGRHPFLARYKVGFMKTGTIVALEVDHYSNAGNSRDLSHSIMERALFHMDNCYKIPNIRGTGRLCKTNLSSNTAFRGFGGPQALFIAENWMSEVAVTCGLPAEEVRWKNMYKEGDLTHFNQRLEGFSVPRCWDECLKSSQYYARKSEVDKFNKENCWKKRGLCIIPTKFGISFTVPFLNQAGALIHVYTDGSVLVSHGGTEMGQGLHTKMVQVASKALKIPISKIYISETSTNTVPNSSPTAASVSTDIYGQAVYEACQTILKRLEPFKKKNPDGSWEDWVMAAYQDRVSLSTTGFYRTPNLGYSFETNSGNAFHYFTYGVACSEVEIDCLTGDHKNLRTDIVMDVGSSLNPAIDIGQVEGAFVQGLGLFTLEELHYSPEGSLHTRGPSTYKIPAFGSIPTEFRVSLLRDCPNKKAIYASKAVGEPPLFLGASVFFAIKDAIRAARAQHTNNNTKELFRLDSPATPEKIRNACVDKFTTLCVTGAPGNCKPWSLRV

The target of assay [2] is bovine xanthine oxidase (Bos taurus, UniProt P80457). The assay can be described thus: Further xanthine oxidase inhibition studies, steady-state kinetic analysis (uric acid formation). It is filed as biochemical. The conditions noted are these: 37° C.; for manner of xanthine oxidase inhibition: pH 7.4, inhibitors 1-3 μM. The protocol:
The study was conducted at 37° C. using 30 mU/ml bovine xanthine oxidase in 50 mM phosphate buffer (ph 7.4). The initial rate of uric acid formation was determined spectrophotometrically (292 nm) in the presence of varying concentrations of xanthine (5, 7.5, 10, 15 and 20 μM) and the inhibitors (1-3 μM). Enzyme-inhibitor dissociation constant (Ki) values were calculated from the apparent 1/Vmax values obtained at different inhibitor concentrations.

Assay [3] in a line: Hydroxyl radical scavenging activity (inhibition of NPG hydroxylation by peroxynitrous acid). Particulars: n=3. How it is done:
Antioxidant activity is based on the selective hydroxylation of NPG (N,N'-[5-nitro-1,3-phenylene] bisglutaramide) by hydroxyl radicals produced from peroxynitrous acid (1 mM) by the addition of peroxynitrite stabilised in base to a mixture of NPG (1 mM) and varying concentrations of the anti-ischaemic agents prepared in 0.2M phosphate buffer, pH 7. The solutions were analysed by RP-HPLC. NPS (50 mM), an analogue of NPG, was used as an internal standard. Inhibition of hydroxylation of NPG is a direct measure of the hydroxyl radical scavenging ability of the inhibitors.
Values are expressed as percentage scavenging of the hydroxyl radicals % standard deviation, n=3.

The test system of assay [4] is rat hearts. As to the kind of experiment: Heart ischaemia reperfusion studies (Langendorff perfused rat hearts). Also noted: species or system Wistar rats. The conditions noted are these: 150 μM in reperfusion perfusate, after 60 min aerobic perfusion following 50 min ischaemia, ±sem. The protocol: Adult male Wistar rats (240-320 g) were anaesthetised intraperitoneally (i.p.) with sodium pentobarbital (Sagatal; 60 mg/kg and heparinised (100 IU/100 g body weight) through the femoral vein, and the heart excised in cold Krebs buffer. By Langendorff technique, the hearts were perfused at a constant pressure (100 mm H2 O) with Krebs bicarbonate buffer. The study was initiated by 30 min aerobic perfusion followed by a 50 min period of global ischaemia, achieved by clamping perfusion flow into the aorta, and finally by reperfusion over 60 min. A ballon was inserted into the left ventricle and inflated to a left ventricular end diastolic pressure (LVEDP) of 4 mm Hg and used to measure left ventricular developed pressure (LVDP) and heart rate (HR). In addition, the coronary effluent was collected over timed intervals as a measure of coronary flow (CF). Assessment of function was made 20 min after the start of the study and at 10 min intervals thereafter. SL301 treated hearts followed a similar protocol as above except that the drug was present in the reperfusion perfusate following the ischaemic insult.

Setting [5] is: Table 1, [Xanthine] = 50 μM, inhibitor 1 μM.
The mark [6] stands for this setting: Table 1, [Xanthine] = 50 μM, inhibitor 5 μM.
Setting [7] is: Table 1, [Xanthine] = 50 μM, inhibitor 10 μM.
The mark [8] stands for this setting: Table 1, [Xanthine] = 50 μM, inhibitor 50 μM.
Where [9] appears, read: Table 2, [Xanthine] = 25 μM, inhibitor 5 μM.
Setting [10] is: Table 2, [Xanthine] = 25 μM, inhibitor 10 μM.
[11] abbreviates: Table 2, [Xanthine] = 25 μM, inhibitor 50 μM.
The mark [12] stands for this setting: Table 3, [Xanthine] = 25 μM, inhibitor 1 μM.
[13] abbreviates: Table 3, [Xanthine] = 25 μM, inhibitor 5 μM.
The mark [14] stands for this setting: Table 3, [Xanthine] = 25 μM, inhibitor 10 μM.
The mark [15] stands for this setting: Table 3, [Xanthine] = 25 μM, inhibitor 50 μM.
The mark [16] stands for this setting: Table 4, [Xanthine] = 8 μM, inhibitor 1 μM.
[17] abbreviates: Table 4, [Xanthine] = 8 μM, inhibitor 5 μM.
Setting [18] is: Table 4, [Xanthine] = 8 μM, inhibitor 10 μM.
[19] abbreviates: Table 4, [Xanthine] = 8 μM, inhibitor 50 μM.
Where [20] appears, read: Table 2, [Xanthine] = 25 μM, inhibitor 1 μM.

bovine xanthine oxidase, sequence (P80457 whole entry): as above

As for `Oc1ncnc2[nH]ncc12` [Allopurinol, allopurinol, reference compound], the “% Inhibition (of initial rate of reaction)” value (“% Inhibition” below) was 13.83% in assay [1] (setting [5]); 22.90% in assay [1] (setting [6]); 20.63% in assay [1] (setting [7]); 59.18% in assay [1] (setting [8]); 2.41% in assay [1] (setting [9]); 14.09% in assay [1] (setting [10]). Also, the “% Inhibition” value came out at 58.76% in assay [1] (setting [11]); 23.88% in assay [1] (setting [12]); 64.57% in assay [1] (setting [13]); 44.88% in assay [1] (setting [14]); 68.50% in assay [1] (setting [15]); 17.40% in assay [1] (setting [16]). The “% Inhibition” value stood at 29.20% in assay [1] (setting [17]), 49.85% in assay [1] (setting [18]) and 73.45% in assay [1] (setting [19]). The “manner of xanthine oxidase inhibition” value in assay [2] is given as “competitive”.
A word on the inhibition: it is the percentage by which the read-out fell short of the control. For the molecule `O=c1[nH]c(=O)c2c[nH]nc2[nH]1` [Oxypurinol, oxypurinol, reference compound], the inhibition at 1 µM in assay [1] (setting [5]) was determined as 2.26%; in assay [1] (setting [20]), 2.26%; in assay [1] (setting [12]), 15.4%; in assay [1] (setting [16]), 6.06%. The inhibition at 5 µM in assay [1] (setting [6]) was 24.8%; in assay [1] (setting [9]) it was 37.3%; in assay [1] (setting [13]), 46.1%; in assay [1] (setting [17]) it was 33.3%. In addition, the inhibition at 10 µM in assay [1] (setting [7]) amounted to 32.3%; in assay [1] (setting [10]), 42.4%; in assay [1] (setting [14]), 30.8%; in assay [1] (setting [18]), 45.5%. The inhibition at 50 µM in assay [1] (setting [8]) is 67.4%; in assay [1] (setting [11]), 62.4%; in assay [1] (setting [15]) it was 43.6%; in assay [1] (setting [19]), 48.5%.
In the case of `O=c1c2cn[nH]c2ncn1O` [SL100, 1, hydroxy-6-oxypyrazolo-[3,4-d]-pyrimidine], the “xanthine oxidase inhibition, result in words” value in assay [1] is “inactive”. In addition, the “% Activity (percentage scavenging of the hydroxyl radical)” value in assay [3] (Antioxidant Ratio 0.1) was 6.56%; in assay [3] (Antioxidant Ratio 0.5), 37.70%; in assay [3] (Antioxidant Ratio 1.0) it was 65.58%; in assay [3] (Antioxidant Ratio 5.0) it was 100%.
Taken in the same sequence, the figures for `O=c1[nH]c2[nH]ncc2c(=O)n1O` [SL101, 2,6-dioxo-1-hydroxypyrazolo-[3,4-d]-pyrimidine] were “inactive”, 8.25%, 20.96%, 39.71% and 72.79%.
Taken in the same sequence, the figures for `O=c1c2[nH]cnc2ncn1O` [SL200, 1-hydroxy-6-oxopurine] were “inactive”, 25.13%, 48.49%, 69.54% and 90.09%.
Turning to `O=c1[nH]c2[nH]cnc2c(=O)n1O` [SL201], the “xanthine oxidase inhibition, result in words” value in assay [1] was “inactive”.
Take `O=c1c2nccnc2ncn1O` [SL300, 1-hydroxy-6-oxypyrazino-[2,3-d]-pterine]: the inhibition at 5 µM in assay [1] (setting [6]) is 1.84%; in assay [1] (setting [9]), 9.09%; in assay [1] (setting [13]) it was 5.55%; in assay [1] (setting [17]) it was 12.6%. In addition, the inhibition at 10 µM is 14.2% in assay [1] (setting [7]), 16.1% in assay [1] (setting [10]), 11.1% in assay [1] (setting [14]) and 19.1% in assay [1] (setting [18]). Moreover, the inhibition at 50 µM in assay [1] (setting [8]) stood at 16%; in assay [1] (setting [11]), 34.7%; in assay [1] (setting [15]), 27.8%; in assay [1] (setting [19]), 38.5%. Further, the inhibition at 1 µM in assay [1] (setting [20]) is 13.8%; in assay [1] (setting [16]) it was 6.15%. Besides, the “% Activity (percentage scavenging of the hydroxyl radical)” value in assay [3] (Antioxidant Ratio 0.5) was found to be 6.04%; in assay [3] (Antioxidant Ratio 1.0) it was 26.58%; in assay [3] (Antioxidant Ratio 5.0) it was 68.58%.
What is called Ki is a dissociation constant, usually derived from enzyme kinetics or from competition with a known ligand. Turning to `O=c1[nH]c2nccnc2c(=O)n1O` [SL301], the inhibition at 1 µM stood at 29.1% in assay [1] (setting [5]), 37.1% in assay [1] (setting [20]), 25% in assay [1] (setting [12]) and 22.3% in assay [1] (setting [16]). The inhibition at 5 µM amounted to 31.8% in assay [1] (setting [6]), 51% in assay [1] (setting [9]), 41.7% in assay [1] (setting [13]) and 41.8% in assay [1] (setting [17]). Further, the inhibition at 10 µM in assay [1] (setting [7]) is 39.6%; in assay [1] (setting [10]), 58%; in assay [1] (setting [14]), 58.3%; in assay [1] (setting [18]), 49.8%. Besides, the inhibition at 50 µM in assay [1] (setting [8]) is 63.2%; in assay [1] (setting [11]), 72%; in assay [1] (setting [15]), 77.8%; in assay [1] (setting [19]), 70.9%. Moreover, the inhibition constant (Ki) in assay [2] (30 mU/ml bovine xanthine oxidase, 50 mM phosphate buffer pH 7.4, xanthine 5-20 μM) was 700 nM. In assay [2], the “manner of xanthine oxidase inhibition” value is “competitive”. In addition, the “% Activity (percentage scavenging of the hydroxyl radical)” value worked out at 9.80% in assay [3] (Antioxidant Ratio 0.1), 18.00% in assay [3] (Antioxidant Ratio 0.5), 45.90% in assay [3] (Antioxidant Ratio 1.0) and 70.21% in assay [3] (Antioxidant Ratio 5.0). For the same molecule, the “% recovery of pre-ischaemic LVDP (left ventricular developed pressure)” value in assay [4] (control 41 ± 13) is recorded as 76 ± 9%. Further, in assay [4] (control 49 ± 13), the “% recovery of pre-ischaemic HR (heart rate)” value was 90 ± 6%. In addition, in assay [4] (control 83 ± 6), the “% recovery of pre-ischaemic CF (coronary flow)” value was 72 ± 4%.
